Reference: patent US10654834B2 (Venenum Biodesign, LLC, priority 2016, dated 2020)

What was measured:
[1] = target: T1, human TGR5 receptor (Homo sapiens, UniProt Q8TDU6); test: Human TGR5 cAMP production assay (hTGR5-CHO cells, DiscoveRx cAMP XS+ kit); assay type: cell-based; details: luminescent cAMP assay, read-out: Human TGR5 Lum. cAMP Activity (EC50)
T1 construct: host or cells: CHO-K1 (hTGR5-CHO)
T1 sequence (Q8TDU6 1-330): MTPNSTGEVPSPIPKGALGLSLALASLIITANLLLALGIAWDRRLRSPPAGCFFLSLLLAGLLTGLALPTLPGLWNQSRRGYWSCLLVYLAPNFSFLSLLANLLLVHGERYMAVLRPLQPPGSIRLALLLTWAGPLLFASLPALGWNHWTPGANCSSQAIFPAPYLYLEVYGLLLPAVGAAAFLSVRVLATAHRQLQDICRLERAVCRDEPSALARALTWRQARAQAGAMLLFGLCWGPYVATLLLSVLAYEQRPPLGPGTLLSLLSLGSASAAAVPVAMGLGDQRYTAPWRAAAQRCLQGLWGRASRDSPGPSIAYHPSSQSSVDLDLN
Experimental: Human TGR5 cAMP Production Assay
Compounds of the present invention were evaluated for their ability to induce cAMP production using CHO-K1 cells overexpressing the human TGR5 receptor.
CHO-K1 cells stably expressing human TGR5 receptor (accession number NM_001077194.1) (hTGR5) (i.e., hTGR5-CHO cells) were purchased from DiscoveRx Corporation (Fremont, Calif.). hTGR5-CHO cells were grown in Ham's F-12 media supplemented with 10% Fetal Bovine Serum, 1% Penicillin-Streptomycin, 2 mM L-Alanine L-Glutamine (Glutamax), and 800 μg/mL Geneticin selection. The cAMP production assay was performed using DiscoveRx's cAMP XS+ kit (Catalog No. 90-0075XL) following the manufacturer's recommended protocol. Briefly, hTGR5-CHO cells were harvested using non-enzymatic cell dissociation buffer (Sigma-Aldrich, St. Louis, Mo.) and 1×10^6 cells were combined in Phosphate-Buffered Saline (PBS) to a final volume of 496 μL to which 4 μL of 125 mM IBMX (Sigma-Aldrich, St. Louis, Mo.) was added. 500 μL of cAMP antibody solution was added to the harvested cells and incubated at room temperature for 20 min.
Test compounds were serially diluted (half-log dilutions) in DMSO and then further diluted 1:50 in PBS, 10 mM HEPES buffer. 2 μL of serially diluted compound was added to a 384-well low volume plate (Greiner; cat #784075) and centrifuged briefly. 2 μl of the cell/cAMP antibody mixture was then added to each compound-containing well and allowed to incubate at room temperature for one hour. Following incubation, the XS+ kits' ED/Lysis/CL Substrate Working Solution was prepared following the manufacturer's recommended protocol and 4 μL was added to each well of the plate. The plate was then incubated for one hour at room temperature. Following incubation, 4 μL of Enzyme Acceptor reagent was added to the plate and allowed to incubate overnight at room temperature. Luminescent signal was then detected using the Viewlux instrument (Perkin-Elmer, Waltham, Mass.).
Human and Mouse TGR5 cAMP
(§1) In Table 52, EC50 values for both human and mouse cells were determined according to the TGR5 cAMP assays described above. […]

[2] = target: T2, mouse TGR5 receptor (Mus musculus, UniProt Q80SS6); test: Mouse TGR5 HTRF cAMP production assay (HEK293-EBNA cells, Cisbio cAMP HiRange kit); assay type: cell-based; details: HEK293-EBNA cells overexpressing mouse TGR5, HTRF cAMP assay
T2 construct: host or cells: HEK293-EBNA (293 c18, ATCC CRL10852)
T2 sequence (Q80SS6 1-329): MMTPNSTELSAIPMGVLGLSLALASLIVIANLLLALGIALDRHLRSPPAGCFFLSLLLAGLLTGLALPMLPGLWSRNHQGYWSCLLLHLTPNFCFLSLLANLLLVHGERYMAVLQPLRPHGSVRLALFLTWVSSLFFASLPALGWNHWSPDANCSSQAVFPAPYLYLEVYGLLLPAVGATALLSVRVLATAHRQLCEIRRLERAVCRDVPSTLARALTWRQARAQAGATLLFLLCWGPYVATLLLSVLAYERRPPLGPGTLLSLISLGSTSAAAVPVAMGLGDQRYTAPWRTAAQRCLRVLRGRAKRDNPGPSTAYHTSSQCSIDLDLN
Experimental: Mouse TGR5 cAMP Production Assay
Compounds of the present invention were evaluated for their ability to induce cAMP production in HEK-EBNA cells overexpressing the mouse TGR5 receptor. Human embryonic kidney cells (HEK293-EBNA) stably expressing mouse TGR5 receptor were established using the following procedure. Specifically, a commercially obtained gene encoding mouse TGR5 (accession number BC116914) from Thermo Scientific (Waltham, Mass.) was cloned into an episomal expression vector. The resulting expression plasmid was then transfected into 293 c18 (ATCC® CRL10852™) cells, which express the Epstein-Barr virus nuclear antigen EBNA1 and can support the replication of episomal vectors. Selection for the plasmid was maintained with Hygromycin B. Cells were cultured and maintained in DMEM (Sigma; cat #6429) supplemented with 10% Fetal Bovine Serum, 1% penicillin/streptomycin, 2 mM L-alanine L-glutamine (GlutaMax), and 250 μg/mL Hygromycin.
We developed two cAMP production assays.
(ii) HTRF cAMP Production Assay
In this second cAMP production assay, the cAMP production was measured in 384-well low volume plates (Greiner; cat #784075) using the Cisbio™ cAMP HiRange HTRF Assay Kit (CisBio) according to the manufacturer's protocol.
Briefly, compounds were initially diluted in 100% DMSO (12-point serial dilution by half logs) in a 96-well plate and then were further diluted 1:50 in PBS containing 10 mM HEPES. 5 μL were transferred to the 384-well assay plate in duplicate. HEK293-EBNA cells stably overexpressing mouse TGR5 were harvested using non-enzymatic cell dissociation buffer (Sigma), spun down, then resuspended in serum-free DMEM with 500 μM IBMX at a density of 500,000 cells/mL. 5 μL of cell suspension was transferred to each well of the 384-well assay plate already containing compound. The plate was covered and incubated at room temperature for 1 hour. The d2-cAMP and anti-cAMP Ab-cryptate stock solutions were prepared as per kit instructions. Then 5 μL of each conjugate (d2 and cryptate) were added to each well of the assay plate. The plate was covered and incubated at room temperature for one (1) hour. The plate was read on an Envision™ plate reader (PerkinElmer).
as §1

EC50 [1] | EC50 [2] | Compound
< 0.1 µM | < 0.1 µM | N#Cc1ccc(CCNC(=O)[C@@H]2CCCN2c2cc(N3CCC(CCNC(=O)NCCNC(=O)[C@@H](N)CS(=O)(=O)O)CC3)nc(C(F)(F)F)n2)cc1 [Compound 373, (R)-2-amino-3-((2-(3-(2-(1-(6-((S)-2-((4-cyanophenethyl)carbamoyl)pyrrolidin-1-yl)-2-(trifluoromethyl)pyrimidin-4-yl)piperidin-4-yl)ethyl)ureido)ethyl)amino)-3-oxopropane-1-sulfonic acid]
1 to 30 µM | > 30 µM | N#Cc1ccc(CCNC(=O)[C@@H]2CCCN2c2cc(C(F)(F)F)cc(N3CCC(CO)CC3)n2)cc1 [Compound 37]
< 0.1 µM | < 0.1 µM | N[C@@H](CCC(=O)NCCCC1CCN(c2cc(N3CCC[C@H]3C(=O)NCCc3ccc(C(F)(F)F)cc3)nc(C(F)(F)F)n2)CC1)C(=O)O [Compound 77, (S)-2-amino-5-oxo-5-((3-(1-(2-(trifluoromethyl)-6-((S)-2-((4-(trifluoromethyl)phenethyl)carbamoyl)pyrrolidin-1-yl)pyrimidin-4-yl)piperidin-4-yl)propyl)amino)pentanoic acid]
0.1 to 0.999 µM | < 0.1 µM | N#Cc1ccc(CCNC(=O)[C@@H]2CCCN2c2cc(-c3ccc(CNC(=O)NCCCS(=O)(=O)O)cc3)nc(C(F)(F)F)n2)cc1 [Compound 193, (S)-3-(3-(4-(6-(2-((4-cyanophenethyl)carbamoyl)pyrrolidin-1-yl)-2-(trifluoromethyl)pyrimidin-4-yl)benzyl)ureido)propane-1-sulfonic acid]
1 to 30 µM | 0.1 to 0.999 µM | CC(C)(C)OC(=O)N[C@@H](CO)C(=O)N1CCN(c2cc(N3CCC[C@@H](C(=O)NCCc4ccc(C(F)(F)F)cc4)C3)nc(C(F)(F)F)n2)CC1 [Compound 341, tert-butyl ((S)-3-hydroxy-t-oxo-1-(4-(2-(trifluoromethyl)-6-((R)-3-((4-(trifluoromethyl)phenethyl)carbamoyl)piperidin-1-yl)pyrimidin-4-yl)piperazin-1-yl)propan-2-yl)carbamate]
1 to 30 µM | 1 to 30 µM | N#Cc1ccc(CCNC(=O)[C@@H]2CCCN2c2cc(NCCS(=O)(=O)O)nc(C(F)(F)F)n2)cc1 [Compound 12]
< 0.1 µM | < 0.1 µM | N#Cc1ccc(CCNC(=O)[C@@H]2CCCN2c2cc(-c3ccc(COCC(=O)NCS(=O)(=O)O)cc3)cc(C(F)(F)F)n2)cc1 [Compound 209, (S)-(2-((4-(2-(2-((4-cyanophenethyl)carbamoyl)pyrrolidin-1-yl)-6-(trifluoromethyl)pyridin-4-yl)benzyl)oxy)acetamido)methanesulfonic acid]
0.1 to 0.999 µM | 0.1 to 0.999 µM | Cc1ccsc1-c1cc(N2CCC[C@H]2C(=O)NCCc2ccc(C#N)cc2)nc(C(F)(F)F)n1 [Compound 172, (S)-N-(4-cyanophenethyl)-1-(6-(3-methylthiophen-2-yl)-2-(trifluoromethyl)pyrimidin-4-yl)pyrrolidine-2-carboxamide]
0.1 to 0.999 µM | < 0.1 µM | N#Cc1ccc(CCNC(=O)[C@@H]2CCCN2c2cc(-c3ccc(CCNC(=O)NCCS(=O)(=O)O)cc3)nc(C(F)(F)F)n2)cc1 [Compound 194, (S)-2-(3-(4-(6-(2-((4-cyanophenethyl)carbamoyl)pyrrolidin-1-yl)-2-(trifluoromethyl)pyrimidin-4-yl)phenethyl)ureido)ethanesulfonic acid]
< 0.1 µM | < 0.1 µM | N#Cc1ccc(CCNC(=O)[C@@H]2CCCN2c2cc(N3CCC(CCCC(=O)N4CCN(CC(=O)O)CC4)CC3)nc(C(F)(F)F)n2)cc1 [Compound 108, (S)-2-(4-(4-(1-(6-(2-((4-cyanophenethyl)carbamoyl)pyrrolidin-1-yl)-2-(trifluoromethyl)pyrimidin-4-yl)piperidin-4-yl)butanoyl)piperazin-1-yl)acetic acid]
0.1 to 0.999 µM | 0.1 to 0.999 µM | N#Cc1ccc(CCNC(=O)[C@@H]2CC(F)(F)CN2c2cc(N3CCC(CCNC(=O)NCCS(=O)(=O)O)CC3)nc(C(F)(F)F)n2)cc1 [Compound 216, (S)-2-(3-(2-(1-(6-(2-((4-cyanophenethyl)carbamoyl)-4,4-difluoropyrrolidin-1-yl)-2-(trifluoromethyl)pyrimidin-4-yl)piperidin-4-yl)ethyl)ureido)ethanesulfonic acid]
0.1 to 0.999 µM | < 0.1 µM | CCOC(=O)CCNC(=O)N1CCN(c2cc(N3CCC[C@@H](C(=O)NCCc4ccc(C(F)(F)F)cc4)C3)nc(C(F)(F)F)n2)CC1 [Compound 343, (R)-ethyl 3-(4-(2-(trifluoromethyl)-6-(3-((4-(trifluoromethyl)phenethyl)carbamoyl)-piperidin-1-yl)pyrimidin-4-yl)piperazine-1-carboxamido)propanoate]
1 to 30 µM | 1 to 30 µM | CN(C)[C@@H]1C[C@@H](C(=O)NCCc2ccc(C(F)(F)F)cc2)N(c2cc(N3CCC(CCNC(=O)NCCC(=O)O)CC3)nc(C(F)(F)F)n2)C1 [Compound 352, 3-(3-(2-(1-(6-((2S,4R)-4-(dimethylamino)-2-((4-(trifluoromethyl)phenethyl)carbamoyl)pyrrolidin-1-yl)-2-(trifluoromethyl)pyrimidin-4-yl)piperidin-4-yl)ethyl)ureido)propanoic acid]
< 0.1 µM | < 0.1 µM | N#Cc1ccc(CCNC(=O)[C@@H]2CCN2c2cc(N3CCC(CCCC(=O)NCCO)CC3)nc(C(F)(F)F)n2)cc1 [Compound 361, (S)-N-(4-cyanophenethyl)-1-(6-(4-(4-((2-hydroxyethyl)amino)-4-oxobutyl)piperidin-1-yl)-2-(trifluoromethyl)pyrimidin-4-yl)azetidine-2-carboxamide]
1 to 30 µM | 0.1 to 0.999 µM | COC(=O)C(=O)N1CCN(c2cc(N3CCC[C@@H](C(=O)NCCc4ccc(C(F)(F)F)cc4)C3)nc(C(F)(F)F)n2)CC1 [Compound 339, (R)-methyl 2-oxo-2-(4-(2-(trifluoromethyl)-6-(3-((4-(trifluoromethyl)phenethyl)-carbamoyl)piperidin-1-yl)pyrimidin-4-yl)piperazin-1-yl)acetate]
